Measured values as given in ChEMBL document CHEMBL4513155, “CO-ADD screening of University of Sydney (Australia) compounds” (2021).
In brackets after ≈: the same amount, converted by molar mass.

How the values were obtained:
HEK293 = assay: cells; format: functional; details: Homo sapiens, ATCC CRL1573, HEK293; ASSAY_TEST Inhibition of Cell Viability; detection method Resazurin; Fluorescence (ex560/em590); MEDIA DMEM with 10% FBS; plate type 384well; TC; CORNING #3712; time 18 hr
Staphylococcus aureus = assay: microbe, parasite or virus in culture; details: ATCC 43300, 18 h, ASSAY_TEST Inhibition of Bacterial Growth, detection method Absorption (OD600), MEDIA CAMHB, plate type 384well, NBS, CORNING #3640
Description: Antibacterial activity against Staphylococcus aureus MRSA ATCC 43300 (CO-ADD:GP_020); MIC in CAMBH media, using NBS plates, by OD(600)

Escherichia coli = assay: microbe, parasite or virus in culture; details: ATCC 25922, 18 h, ASSAY_TEST Inhibition of Bacterial Growth, detection method Absorption (OD600), MEDIA CAMHB, plate type 384well, NBS, CORNING #3640
Description: Antibacterial activity against Escherichia coli ATCC 25922 (CO-ADD:GN_001); MIC in CAMBH media using NBS plates, by OD(600)

Klebsiella pneumoniae = assay: microbe, parasite or virus in culture; details: ATCC 700603, 18 h, ASSAY_TEST Inhibition of Bacterial Growth, detection method Absorption (OD600), MEDIA CAMHB, plate type 384well, NBS, CORNING #3640
Description: Antibacterial activity against Klebsiella pneumoniae MDR ATCC 70063 (CO-ADD:GN_003); MIC in CAMBH media using NBS plates, by OD(600)

Pseudomonas aeruginosa = assay: microbe, parasite or virus in culture; details: ATCC 27853, 18 h, ASSAY_TEST Inhibition of Bacterial Growth, detection method Absorption (OD600), MEDIA CAMHB, plate type 384well, NBS, CORNING #3640
Description: Antibacterial activity against Pseudomonas aeruginosa ATCC 27853 (CO-ADD:GN_042); MIC in CAMBH media using NBS plates, by OD(600)

Acinetobacter baumannii = assay: microbe, parasite or virus in culture; details: ATCC 19606, 18 h, ASSAY_TEST Inhibition of Bacterial Growth, detection method Absorption (OD600), MEDIA CAMHB, plate type 384well, NBS, CORNING #3640
Description: Antibacterial activity against Acinetobacter baumannii ATCC 19606 (CO-ADD:GN_034); MIC in CAMBH media using NBS plates, by OD600

Candida albicans = assay: microbe, parasite or virus in culture; details: ATCC 90028, ASSAY_TEST Inhibition of Fungal Growth, detection method Absorption (OD530), plate type 384well, NBS, CORNING #3640
Description: Antifungal activity against Candida albicans ATCC 90028 (CO-ADD:FG_001); MIC in YNB media using NBS plates, by OD630

Description for Cryptococcus neoformans: Antifungal activity against Cryptococcus neoformans H99 ATCC 208821 (CO-ADD:FG_002); MIC in YNB media using NBS plates, by Resazurin OD(600-570)

Row | MIC (Cryptococcus neoformans) | MIC (Staphylococcus aureus) | MIC (Escherichia coli) | MIC (Klebsiella pneumoniae) | MIC (Pseudomonas aeruginosa) | MIC (Acinetobacter baumannii) | MIC (Candida albicans) | Structure (SMILES) | CC50 (HEK293)
1 | > 32 µg/mL | > 32 µg/mL | > 32 µg/mL | > 32 µg/mL | > 32 µg/mL | > 32 µg/mL | 0.5 µg/mL (≈ 1.43 µM) | Clc1ccc(-c2nnc3cncc(OCCc4ccccc4)n23)cc1 | 21.7 µg/mL (≈ 61.9 µM)
2 | 4 µg/mL | 4 µg/mL | > 32 µg/mL | > 32 µg/mL | > 32 µg/mL | > 32 µg/mL | > 32 µg/mL | [O-][Cl+3]([O-])([O-])O.[O-][Cl+3]([O-])([O-])O.[Zn].c1ccc2c(-n3cc(CN4CCCNCCN(Cc5cn(-c6cccc7ccccc67)nn5)CCCNCC4)nn3)cccc2c1 | 4.89 µg/mL
3 | 32 µg/mL | 16 µg/mL | > 32 µg/mL | > 32 µg/mL | > 32 µg/mL | > 32 µg/mL | > 32 µg/mL | CCN1C(=O)c2cccc3c(-c4c[n+](CCN5CCCNCCN(CC[n+]6cc(COc7ccc8c(c7)CC[C@@H]7[C@@H]8CC[C@]8(C)C(=O)CC[C@@H]78)[nH]n6)CCCNCC5)n[nH]4)ccc(c23)C1=O.[O-][Cl+3]([O-])([O-])O.[O-][Cl+3]([O-])([O-])O.[Zn+2] | > 32 µg/mL
